From patent US20220233594A1, “TARGETING OTUB1 IN IMMUNOTHERAPY” (Board of Regents, The University ofTexas System, priority 2019, published 2022)

Legend:
Type in all cases: cell-based, mouse
[1] = test system: WT or Otub1-TKO naive OT-I CD8 T cells; experiment: qRT-PCR analysis of Glut1 and Hk2 expression with AKT inhibitor; conditions: stimulated with anti-CD3 plus anti-CD28; AKTi vs DMSO
Method: Real-time quantitative PCR. RNA was extracted with TRIzol reagent from isolated WT OT-I or Otub1-TKO OT-I CD8 T cells. The RNA samples were subjected to quantitative PCR analyses using the SYBR regent (Bio-Rad). The expression of individual genes was calculated by a standard curve method and was normalized to the expression of Actb.

[2] = test system: WT or Otub1-TKO naive OT-I CD8 T cells; experiment: ELISA of cytokines in culture supernatant with AKT inhibitor; conditions: stimulated with anti-CD3 plus anti-CD28 for 66 h; AKTi vs DMSO
Method: T-cell and NK cell purification and in vitro treatments. CD8 and CD4 T cells were isolated from splenocytes with anti-CD8- or anti-CD4-conjugated magnetic beads (Miltenyi), and naive CD8 or CD4 T cells were further purified by FACS sorting to get CD44^loCD62L^hi population. The naive T cells were stimulated in replicate wells of 96-well plates (1×10^5 cells per well) for 66 h, and the culture supernatants were analyzed by ELISA (eBioScience).

[3] = test system: WT or Otub1-TKO naive OT-I CD8 T cells; experiment: Seahorse analysis of extracellular acidification rate (ECAR) with AKT inhibitor; conditions: activated with anti-CD3 plus anti-CD28 for 24 h; AKTi 3 μM vs DMSO
Method: Metabolic assays. OCR and ECAR were measured with an XF96 extracellular flux analyzer (Seahorse Bioscience) following the manufacturer's instruction. Briefly, WT or Otub1-TKO CD8 naive T cells, either freshly isolated or in vitro activated with anti-CD3 plus anti-CD28 (for 24 h), were seeded in XF96 microplates (150,000 cells/well). The plates were quickly centrifuged to immobilize the cells. After incubation in a non-buffered assay medium (Seahorse Biosciences) in a non-CO2 incubator for 30 min, the cells were subjected to glycolysis assays with a XF glycolysis stress test kit (Seahorse Biosciences). Initial measurement of ECAR was done when cells were incubated in a glycolysis stress test medium without glucose to record the baseline. Glucose (10 mM) was then injected to induce ECAR, reflecting glycolysis rate under basal conditions. Subsequently, oligomycin (1 μM) was injected to inhibit mitochondrial ATP production and shift the energy production to glycolysis, thereby measuring the maximum glycolytic capacity (also called stressed ECAR). Finally, a glucose analog, 2-deoxy-glucose (2-DG, 100 mM) was injected to inhibit glycolysis through targeting glucose hexokinase, resulting in decreased ECAR that served as a measure to confirm the glycolysis-dependence of the detected ECAR. […]

For `O=c1[nH]c2ccccc2n1C1CCN(Cc2ccc(-c3nc4cc5[nH]cnc5cc4nc3-c3ccccc3)cc2)CC1` [AKTi], the “Glut1 and Hk2 expression (qRT-PCR)” value [1] was “blocked TCR-CD28-stimulated hyper-expression of the glycolysis-regulatory genes, Glut1 and Hk2”, the “cytokine production (ELISA, culture supernatant)” value [2] was “blocked” and the “extracellular acidification rate (ECAR)” value [3] was “erased the ECAR differences between WT and Otub1-TKO CD8 T cells”.
